Assay results: ChEMBL document CHEMBL3593238, “Selenorhodamine photosensitizers with the Texas-red core for photodynamic therapy of cancer cells” (Bioorg Med Chem, 2015)
The source made the active and inactive calls. No cut-off for these calls is given here.

Assays:
[1] = Dark toxicity in mouse Colon 26 cells expressing p-glycoprotein assessed as cell viability incubated for 1 hr followed by incubated for 48 hrs in fresh medium by sulforhodamine B assay; type: cell-based; settings: read-out: LD50
[2] = Ratio of LD50 for dark toxicity in mouse Colon 26 cells to EC50 for photo-toxicity in mouse Colon 26 cells at 15 Jcm'-2 of continuous illumination with 630 +/- 2 nm laser light; type: cell-based; settings: read-out: Ratio LD50/EC50
Colon 26 [3] = assay: Photo-toxicity in mouse Colon 26 cells assessed as cell viability at 1 Jcm'-2 of continuous illumination with 630 +/- 2 nm laser light incubated for 48 hrs by sulforhodamine B assay; type: functional, cell-based; settings: for EC50: Colon 26, 48 h
Colon 26 [4] = assay: Photo-toxicity in mouse Colon 26 cells assessed as cell viability at 0.5 Jcm'-2 of continuous illumination with 630 +/- 2 nm laser light incubated for 48 hrs by sulforhodamine B assay; type: functional, cell-based; settings: for EC50: Colon 26, 48 h
Colon 26 [5] = assay: Drug uptake in mouse Colon 26 cells expressing p-glycoprotein at 2 x 10^-7 M after 15 mins by flow cytometry in absence of verapamil; type: ADME, cell-based; settings: colon 26, 0.25 h, 0.2 µM
Colon 26 [6] = assay: Photo-toxicity in mouse Colon 26 cells assessed as cell viability up to 5 Jcm'-2 of continuous illumination with 630 +/- 2 nm laser light incubated for 48 hrs by sulforhodamine B assay; type: functional, cell-based; settings: Colon 26, 48 h
[7] = n-Octanol-water partition coefficient, log P of the compound at pH 7.4 by shake flask method; type: physicochemical
[8] = Ratio of LD50 for dark toxicity in mouse Colon 26 cells to EC50 for photo-toxicity in mouse Colon 26 cells at 1 Jcm'-2 of continuous illumination with 630 +/- 2 nm laser light; type: cell-based; settings: read-out: Ratio LD50/EC50
[9] = Cellular uptake in mitochondria of mouse Colon 26 cells expressing p-glycoprotein using MitoTracker Green after 15 mins by flow cytometry; type: ADME; settings: colon 26, 0.25 h
Colon 26 [10] = assay: Drug uptake in mouse Colon 26 cells expressing p-glycoprotein at 2 x 10^-7 M after 15 mins by flow cytometry in presence of 1 x 10^-4 M of verapamil; type: ADME, cell-based; settings: colon 26, 0.25 h, 0.2 µM

SMILES | CC50 at 1 h [1] | selectivity ratio [2] | Activity (Colon 26 [3]) | Activity (Colon 26 [4]) | Drug uptake (Colon 26 [5]) | EC50 (Colon 26 [3]) | EC50 (Colon 26 [6]) | logD [7] | selectivity ratio [8] | Drug uptake [9] | EC50 (Colon 26 [4]) | fold change (FC) (Colon 26 [10])
CN(C)c1ccc(-c2cc(-c3ccccc3)[se+]c(-c3ccc(N)cc3)c2)cc1 | 2.6 µM | 13 |  |  |  |  |  |  |  |  |  | 
CN(C)c1ccc(-c2cc(-c3ccccc3)[s+]c(-c3ccc(N)cc3)c2)cc1 | 0.07 µM |  | inactive | inactive |  |  |  |  |  |  |  | 
S=C(c1ccc(C2=c3cc4c5c(c3[Se]c3c2cc2c6c3CCCN6CCC2)CCC[N+]=5CCC4)s1)N1CCCCC1.[Cl-] | 1.53 µM |  |  |  | Active | 0.029 µM | 0.05 µM | 4.1 | 53 | Active | 0.056 µM | 2.9
CN(C)c1ccc(-c2cc(-c3ccc(N)cc3)[se+]c(-c3ccc(N)cc3)c2)cc1 |  | 3.8 |  |  |  |  |  |  |  |  |  | 
O=C(c1ccc(C2=c3cc4c5c(c3[Se]c3c2cc2c6c3CCCN6CCC2)CCC[N+]=5CCC4)s1)N1CCCCC1.[Cl-] | 2.24 µM |  |  |  | Active | 0.0388 µM | 0.05 µM | 3.71 | 58 | Active | 0.079 µM | 7.6
